This passage reports IC50 results from patent publication US20150011751A1, “NOVEL TRIAZINE DERIVATIVE” (CARNA BIOSCIENCES, INC., priority 2012, published 2015).

Structures are written as SMILES. Structures can show the parent of a compound that is named as a salt.

Chain of Dephosphorylated BTK (Q06187 whole entry): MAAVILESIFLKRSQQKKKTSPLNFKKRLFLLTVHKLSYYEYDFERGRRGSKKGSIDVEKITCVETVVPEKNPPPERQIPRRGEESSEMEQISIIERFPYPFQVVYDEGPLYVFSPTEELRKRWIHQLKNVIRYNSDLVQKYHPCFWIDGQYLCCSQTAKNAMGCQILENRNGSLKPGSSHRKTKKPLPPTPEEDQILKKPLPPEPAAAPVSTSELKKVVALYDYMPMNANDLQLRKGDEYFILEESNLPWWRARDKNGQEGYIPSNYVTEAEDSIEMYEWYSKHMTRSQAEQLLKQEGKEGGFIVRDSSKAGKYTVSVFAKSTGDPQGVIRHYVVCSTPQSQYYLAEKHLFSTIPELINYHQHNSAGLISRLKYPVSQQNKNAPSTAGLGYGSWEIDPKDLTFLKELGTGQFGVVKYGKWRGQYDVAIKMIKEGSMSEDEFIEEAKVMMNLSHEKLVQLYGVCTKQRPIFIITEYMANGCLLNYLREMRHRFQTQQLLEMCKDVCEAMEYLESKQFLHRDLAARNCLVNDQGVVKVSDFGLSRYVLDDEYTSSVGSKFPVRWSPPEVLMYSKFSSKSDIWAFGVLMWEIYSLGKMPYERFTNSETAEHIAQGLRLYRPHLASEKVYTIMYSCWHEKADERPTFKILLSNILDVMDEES

The assay has as its target Dephosphorylated BTK (Homo sapiens, UniProt Q06187). Briefly: Test of activity inhibition against dephosphorylated BTK (mobility shift assay).
Protocol: Kinase activity was measured by a mobility shift assay (MSA) method using QuickScout Screening Assist (trademark) MSA (commercially available kit, manufactured by Carna Biosciences, Inc.). FITC-labeled SRCtide peptide supplied with the kit was used as a substrate of a kinase reaction.
IC50 value was calculated by regression analysis of the inhibition ratio and the test compound concentration (logarithm).
Dephosphorylated BTK was obtained by adding a A protein phosphatase (Code No. P0753S, manufactured by New England BioLabs Inc.) and MnCl2 to a biotinylated BTK protein BTN-BTK (manufactured by Carna Biosciences, Inc.) enzyme solution so as to adjust the concentrations to 10 U/μg and 2 mM, respectively, reacting the mixture at 4° C. overnight, removing the A protein phosphatase through anti-[sequence]-tag antibody agarose gel chromatography, and performing buffer exchange using 10DG Desalting Column.
Take `Nc1nc(Nc2ccc(N3CCN(C=O)CC3)cc2)nc(-c2cccc(N3CCc4cc(C5CC5)cc(F)c4C3=O)c2CO)n1` [Example 189, 4-[4-({4-Amino-6-[3-(6-cyclopropyl-8-fluoro-1-oxo-3,4-dihydroiso-quinolin-2(1H)-yl)-2-(hydroxymethyl)phenyl]-1,3,5-triazin-2-yl}amino)phenyl]pipera-zine-1-carbaldehyde]: the IC50 (in general, the concentration that inhibits the measured activity by half) is 1.2 nM.

Turning to `N#CCc1ccc(Nc2nc(N)nc(-c3cccc(N4CCc5cc(C6CC6)cc(F)c5C4=O)c3CO)n2)cc1` [Example 190, 2-[4-({4-Amino-6-[3-(6-cyclopropyl-8-fluoro-1-oxo-3,4-dihydroiso-quinolin-2(1H)-yl)-2-(hydroxymethyl)phenyl]-1,3,5-triazin-2-yl}amino)phenyl]acetonitrile], the IC50 amounted to 1.4 nM.

Take `Nc1nc(Nc2ccc(N3CCNCC3)cc2)nc(-c2cccc(N3CCc4cc(C5CC5)cc(F)c4C3=O)c2CO)n1` [Example 191, 2-[3-(4-Amino-6-{[4-(pipe-razin-1-yl)phenyl]amino}-1,3,5-triazin-2-yl)-2-(hydroxymeth-yl)phenyl]-6-cyclopro-pyl-8-fluoro-3,4-dihy-droisoquinolin-1(2H)-one]: the IC50 is 1 nM. Next, `CC1(c2ccc(C(=O)Nc3cccc(-c4nc(N)nc(Nc5ccc(N6CCOCC6)cc5)n4)c3CO)cc2)CC1` [Example 192, N-(3-{4-Amino-6-[(4-morph-olinophenyl)amino]-1,3,5-triazin-2-yl}-2-(hydroxymethyl)phe-nyl)-4-(1-methylcyclo-propyl)benzamide]: 0.7 nM; `CN1CCN(c2ccc(Nc3nc(N)nc(-c4cccc(N5CCc6cc(C7CC7)cc(F)c6C5=O)c4CO)n3)cc2)CC1` [Example 193, 2-[3-(4-Amino-6-{[4-(4-methylpiperazin-1-yl)phenyl]amino}-1,3,5-triazin-2-yl)-2-(hy-droxymethyl)phenyl]-6-cyclopropyl-8-fluoro-3,4-dihydroisoquinolin-1(2H)-one]: 1.1 nM. Next, `Nc1nc(Nc2ccc(OC3CCOCC3)c(F)c2)nc(-c2cccc(N3CCc4cc(C5CC5)cc(F)c4C3=O)c2CO)n1` [Example 194, 2-{3-[4-Amino-6-({3-fluoro-4-[(tetrahydro-2H-pyran-4-yl)oxy]phe-nyl}amino)-1,3,5-tria-zin-2-yl]-2-(hydroxy-methyl)phenyl}-6-cyclo-propyl-8-fluoro-3,4-dihydroisoquinolin-1(2H)-one]: 0.9 nM; `Nc1nc(Nc2cn[nH]c2)nc(-c2cccc(N3CCc4cc(C5CC5)cc(F)c4C3=O)c2CO)n1` [Example 195, 2-(3-{4-[(1H-Pyrazol-4-yl)amino]-6-amino-1,3,5-triazin-2-yl}-2-(hydroxymethyl)phenyl)-6-cyclopropyl-8-fluoro-3,4-dihydro-isoquinolin-1(2H)-one]: 0.8 nM. Consider `Nc1nc(Nc2ccc(OCCN3CCOCC3)cc2)nc(-c2cccc(N3CCc4cc(C5CC5)cc(F)c4C3=O)c2CO)n1` [Example 196, 2-[3-(4-Amino-6-{[4-(2-morpholinoethoxy)phe-nyl]amino}-1,3,5-tri-azin-2-yl)-2-(hydroxy-methyl)phenyl]-6-cyclo-propyl-8-fluoro-3,4-dihydroisoquinolin-1(2H)-one formate], for which the IC50 is 3.4 nM. Next, `Nc1nc(Nc2ccc(OCCCO)cc2)nc(-c2cccc(N3CCc4cc(C5CC5)cc(F)c4C3=O)c2CO)n1` [Example 197, 2-[3-(4-Amino-6-{[4-(3-hydroxypropoxy)phe-nyl]amino}-1,3,5-tri-azin-2-yl)-2-(hydroxymeth-yl)phenyl]-6-cyclo-propyl-8-fluoro-3,4-di-hydroisoquinolin-1(2H)-one]: 2.4 nM. Turning to `Nc1nc(Nc2ccc(Cc3nnn[nH]3)cc2)nc(-c2cccc(N3CCc4cc(C5CC5)cc(F)c4C3=O)c2CO)n1` [Example 198, 2-{3-[4-({4-[(1H-Tetra-zol-5-yl)methyl]phe-nyl}amino)-6-amino-1,3,5-triazin-2-yl]-2-(hy-droxymethyl)phenyl}-6-cyclopropyl-8-fluoro-3,4-dihydroisoquinolin-1(2H)-one], the IC50 turned out to be 3.7 nM. Take `CC(C)(C)c1ccc(C(=O)Nc2cccc(-c3nc(N)nc(Nc4ccc(OCCCO)cc4)n3)c2CO)cc1` [Example 200, N-[3-(4-Amino-6-{[4-(3-hydroxypropoxy)phe-nyl]amino}-1,3,5-triazin-2-yl)-2-(hydroxymeth-yl)phenyl]-4-(tert-butyl)benzamide]: the IC50 was 0.8 nM. With `CC(C)(CO)c1ccc(C(=O)Nc2cccc(-c3nc(N)nc(Nc4ccc(N5CCOCC5)cc4)n3)c2CO)cc1` [Example 201, N-(3-{4-Amino-6-[(4-mor-pholinophenyl)amino]-1,3,5-triazin-2-yl}-2-(hydroxymethyl)phe-nyl)-4-(1-hydroxy-2-meth-ylpropan-2-yl)benz-amide], the IC50 was 3.4 nM. As to `CC(C)(C)c1ccc(C(=O)Nc2cccc(-c3nc(N)nc(Nc4ccc(-c5nn[nH]n5)cc4)n3)c2CO)cc1` [Example 202, N-[3-(4-{[4-(1H-Tetra-zol-5-yl)phenyl]amino}-6-amino-1,3,5-triaz-in-2-yl)-2-(hydroxy-methyl)phenyl]-4-(tert-butyl)benzamide], the IC50 was found to be 1.3 nM. `CC(C)(C)c1ccc(C(=O)Nc2cccc(-c3nc(N)nc(Nc4ccc(C[C@H]5COC(=O)N5)cc4)n3)c2CO)cc1` [Example 203, N-{3-[4-Amino-6-({4-[(2-oxooxazolidin-4-yl)methyl]phenyl}amino)-1,3,5-triazin-2-yl]-2-(hydroxymethyl)phe-nyl}-4-(tert-butyl) benzamide]: the IC50 is 0.4 nM.

On to `CC(C)(C)c1ccc(C(=O)Nc2cccc(-c3nc(N)nc(Nc4ccc(S(=O)(=O)N5CCOCC5)cc4)n3)c2CO)cc1` [Example 204, N-[3-(4-Amino-6-{[4-(morpholinosulfonyl)phe-nyl]amino}-1,3,5-tri-azin-2-yl)-2-(hydroxy-methyl)phenyl]-4-(tert-butyl)benzamide], for which the half-maximal inhibitory concentration (IC50) was found to be 1.3 nM. Next, `Cc1cc(Nc2nc(N)nc(-c3cccc(N4CCc5cc(C6CC6)cc(F)c5C4=O)c3CO)n2)n[nH]1` [Example 205, 2-(3-{4-Amino-6-[(5-meth-yl-1H-pyrazol-3-yl)amino]-1,3,5-triazin-2-yl}-2-(hydroxymeth-yl)phenyl)-6-cyclopro-pyl-8-fluoro-3,4-dihy-droisoquinolin-1(2H)-one]: 9.9 nM. As for `CC(C)(C#N)c1cc(F)c2c(c1)CCN(c1cccc(-c3nc(N)nc(Nc4cn[nH]c4)n3)c1CO)C2=O` [Example 206, 2-[2-(3-{4-[(1H-Pyrazol-4-yl)amino]-6-amino-1,3,5-triazin-2-yl}-2-(hydroxymethyl)phe-nyl)-8-fluoro-1-oxo-1,2,3,4-tetrahydro-isoquinolin-6-yl]-2-meth-ylpropanenitrile], the IC50 amounted to 1 nM.

Regarding `CC(C)(O)c1ccc(C(=O)Nc2cccc(-c3nc(N)nc(Nc4ccc(N5CCOCC5)cc4)n3)c2CO)cc1` [Example 208, N-(3-{4-Amino-6-[(4-morpholinophenyl)amino]-1,3,5-triazin-2-yl}-2-(hydroxymethyl)phe-nyl)-4-(2-hydroxy-propan-2-yl)benzamide], the IC50 amounted to 5.9 nM. As for `CC(C)(F)c1ccc(C(=O)Nc2cccc(-c3nc(N)nc(Nc4ccc(N5CCOCC5)cc4)n3)c2CO)cc1` [Example 209, N-(3-{4-Amino-6-[(4-morpholinophenyl)amino]-1,3,5-triazin-2-yl}-2-(hydroxymethyl)phe-nyl)-4-(2-fluoropropan-2-yl)benzamide], the IC50 came to 1.4 nM.
